Measured values from ChEMBL document CHEMBL5291721, “A preclinical secondary pharmacology resource illuminates target-adverse drug reaction associations of marketed drugs” (Nat Commun, 2023).

How the values were obtained:
[1] = biological target: Histamine H3 receptor (Homo sapiens, UniProt Q9Y5N1)
[2] = biological target: 5-hydroxytryptamine receptor 2A (Homo sapiens, UniProt P28223); type: functional, cell-based
[3] = biological target: T1, Cholecystokinin receptor type A (Homo sapiens, UniProt P32238)
T1 sequence (P32238 whole entry): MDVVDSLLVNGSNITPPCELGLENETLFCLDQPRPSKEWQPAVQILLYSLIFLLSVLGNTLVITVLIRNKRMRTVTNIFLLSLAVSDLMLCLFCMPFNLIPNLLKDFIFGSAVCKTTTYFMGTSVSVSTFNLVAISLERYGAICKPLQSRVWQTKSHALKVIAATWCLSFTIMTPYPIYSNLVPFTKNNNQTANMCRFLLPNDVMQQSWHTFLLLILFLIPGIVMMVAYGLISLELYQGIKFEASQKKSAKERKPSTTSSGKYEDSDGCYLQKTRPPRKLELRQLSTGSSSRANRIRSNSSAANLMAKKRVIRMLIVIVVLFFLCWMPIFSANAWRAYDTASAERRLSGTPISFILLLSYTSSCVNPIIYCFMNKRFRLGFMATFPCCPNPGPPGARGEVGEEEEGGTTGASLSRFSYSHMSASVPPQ

[4] = biological target: T2, Alpha-1A adrenergic receptor (Homo sapiens, UniProt P35348); type: functional, cell-based
T2 sequence (P35348 whole entry): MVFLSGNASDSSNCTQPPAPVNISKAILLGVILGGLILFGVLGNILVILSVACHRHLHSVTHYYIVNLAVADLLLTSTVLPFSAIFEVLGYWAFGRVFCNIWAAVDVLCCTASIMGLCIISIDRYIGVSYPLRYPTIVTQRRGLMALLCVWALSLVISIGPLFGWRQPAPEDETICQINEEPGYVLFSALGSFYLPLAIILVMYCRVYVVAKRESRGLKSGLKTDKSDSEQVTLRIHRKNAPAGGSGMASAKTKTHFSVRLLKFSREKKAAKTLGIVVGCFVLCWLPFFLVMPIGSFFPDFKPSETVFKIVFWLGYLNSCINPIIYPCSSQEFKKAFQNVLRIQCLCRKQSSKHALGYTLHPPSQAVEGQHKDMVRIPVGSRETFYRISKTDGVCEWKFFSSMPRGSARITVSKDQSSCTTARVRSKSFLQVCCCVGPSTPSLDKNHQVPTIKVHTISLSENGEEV

[5] = biological target: Sodium-dependent dopamine transporter (Homo sapiens, UniProt Q01959)
[6] = biological target: Vasopressin V1a receptor (Homo sapiens, UniProt P37288)
[7] = biological target: 3',5'-cyclic-AMP phosphodiesterase 4D (Homo sapiens, UniProt Q08499); type: functional
[8] = biological target: Beta-2 adrenergic receptor (Homo sapiens, UniProt P07550); type: functional, cell-based
[9] = biological target: Delta-type opioid receptor (Homo sapiens, UniProt P41143)
[10] = biological target: T3, Alpha-2A adrenergic receptor (Homo sapiens, UniProt P08913); type: functional, cell-based
T3 sequence (P08913 whole entry): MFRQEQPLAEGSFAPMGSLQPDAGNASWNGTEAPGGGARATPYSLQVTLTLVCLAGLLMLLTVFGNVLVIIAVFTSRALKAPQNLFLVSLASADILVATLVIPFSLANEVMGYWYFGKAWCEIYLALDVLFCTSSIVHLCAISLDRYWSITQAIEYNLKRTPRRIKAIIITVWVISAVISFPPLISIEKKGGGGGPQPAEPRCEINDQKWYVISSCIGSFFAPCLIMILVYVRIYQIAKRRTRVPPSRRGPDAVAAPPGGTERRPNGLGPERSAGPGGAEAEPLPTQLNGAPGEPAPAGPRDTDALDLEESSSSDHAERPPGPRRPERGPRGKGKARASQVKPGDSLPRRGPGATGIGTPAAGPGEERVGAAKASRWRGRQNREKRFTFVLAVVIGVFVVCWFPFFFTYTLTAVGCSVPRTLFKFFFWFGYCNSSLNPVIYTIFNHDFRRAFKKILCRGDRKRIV

[11] = biological target: Beta-1 adrenergic receptor (Homo sapiens, UniProt P08588); type: functional
Note: assay procedure not described here.

Chain of Delta-type opioid receptor (P41143 whole entry): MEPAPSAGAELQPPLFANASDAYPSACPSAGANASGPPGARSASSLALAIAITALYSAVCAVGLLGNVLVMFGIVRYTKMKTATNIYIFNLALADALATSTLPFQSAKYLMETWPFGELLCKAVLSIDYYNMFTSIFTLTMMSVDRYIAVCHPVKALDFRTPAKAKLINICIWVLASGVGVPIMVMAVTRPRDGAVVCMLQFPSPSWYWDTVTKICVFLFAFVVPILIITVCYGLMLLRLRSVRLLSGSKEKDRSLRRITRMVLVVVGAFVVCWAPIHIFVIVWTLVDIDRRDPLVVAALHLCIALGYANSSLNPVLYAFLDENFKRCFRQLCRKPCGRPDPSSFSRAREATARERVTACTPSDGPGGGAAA
Chain of Beta-2 adrenergic receptor (P07550 whole entry): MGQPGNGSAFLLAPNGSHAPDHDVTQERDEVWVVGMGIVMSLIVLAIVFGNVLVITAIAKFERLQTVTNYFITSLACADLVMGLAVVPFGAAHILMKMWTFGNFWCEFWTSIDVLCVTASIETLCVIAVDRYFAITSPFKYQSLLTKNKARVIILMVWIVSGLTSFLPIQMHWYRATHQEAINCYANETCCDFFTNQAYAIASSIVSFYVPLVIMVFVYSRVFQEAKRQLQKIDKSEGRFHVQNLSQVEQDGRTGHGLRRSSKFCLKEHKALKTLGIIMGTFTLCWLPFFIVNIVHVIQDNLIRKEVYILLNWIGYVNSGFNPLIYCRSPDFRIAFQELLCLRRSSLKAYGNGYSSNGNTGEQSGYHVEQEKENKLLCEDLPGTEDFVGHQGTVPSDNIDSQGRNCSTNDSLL
Chain of Beta-1 adrenergic receptor (P08588 whole entry): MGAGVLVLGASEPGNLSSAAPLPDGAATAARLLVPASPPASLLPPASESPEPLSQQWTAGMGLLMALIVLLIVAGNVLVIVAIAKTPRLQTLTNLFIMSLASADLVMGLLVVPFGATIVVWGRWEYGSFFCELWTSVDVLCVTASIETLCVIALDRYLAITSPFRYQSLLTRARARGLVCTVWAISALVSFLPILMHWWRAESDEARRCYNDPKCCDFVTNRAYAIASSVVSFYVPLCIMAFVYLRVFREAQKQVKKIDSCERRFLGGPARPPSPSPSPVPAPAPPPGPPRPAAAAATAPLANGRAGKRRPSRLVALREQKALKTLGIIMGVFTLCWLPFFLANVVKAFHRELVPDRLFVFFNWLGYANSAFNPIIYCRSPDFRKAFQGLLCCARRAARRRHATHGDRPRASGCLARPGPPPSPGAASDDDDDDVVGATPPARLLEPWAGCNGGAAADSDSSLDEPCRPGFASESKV
Chain of 3',5'-cyclic-AMP phosphodiesterase 4D (Q08499 whole entry): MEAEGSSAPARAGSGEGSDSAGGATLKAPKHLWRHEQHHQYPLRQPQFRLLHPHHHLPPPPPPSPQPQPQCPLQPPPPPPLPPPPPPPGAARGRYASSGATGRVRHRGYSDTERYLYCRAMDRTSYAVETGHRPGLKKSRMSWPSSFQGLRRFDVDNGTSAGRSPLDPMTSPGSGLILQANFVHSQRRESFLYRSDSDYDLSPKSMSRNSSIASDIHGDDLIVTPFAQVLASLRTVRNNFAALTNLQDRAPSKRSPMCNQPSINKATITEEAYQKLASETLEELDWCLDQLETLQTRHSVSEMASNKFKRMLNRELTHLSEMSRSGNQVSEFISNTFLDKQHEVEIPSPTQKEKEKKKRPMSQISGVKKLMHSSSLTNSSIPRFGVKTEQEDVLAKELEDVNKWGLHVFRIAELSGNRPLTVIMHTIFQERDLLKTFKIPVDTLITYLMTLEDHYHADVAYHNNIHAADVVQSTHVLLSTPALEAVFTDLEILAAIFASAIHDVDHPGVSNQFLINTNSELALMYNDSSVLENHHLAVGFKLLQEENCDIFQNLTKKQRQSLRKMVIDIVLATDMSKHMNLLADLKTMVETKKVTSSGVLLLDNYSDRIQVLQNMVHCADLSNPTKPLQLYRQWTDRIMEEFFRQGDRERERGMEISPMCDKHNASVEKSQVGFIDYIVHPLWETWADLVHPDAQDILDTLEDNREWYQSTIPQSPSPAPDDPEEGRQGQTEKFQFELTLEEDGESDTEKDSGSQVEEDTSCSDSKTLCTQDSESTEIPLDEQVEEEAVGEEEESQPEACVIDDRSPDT
Chain of Sodium-dependent dopamine transporter (Q01959 whole entry): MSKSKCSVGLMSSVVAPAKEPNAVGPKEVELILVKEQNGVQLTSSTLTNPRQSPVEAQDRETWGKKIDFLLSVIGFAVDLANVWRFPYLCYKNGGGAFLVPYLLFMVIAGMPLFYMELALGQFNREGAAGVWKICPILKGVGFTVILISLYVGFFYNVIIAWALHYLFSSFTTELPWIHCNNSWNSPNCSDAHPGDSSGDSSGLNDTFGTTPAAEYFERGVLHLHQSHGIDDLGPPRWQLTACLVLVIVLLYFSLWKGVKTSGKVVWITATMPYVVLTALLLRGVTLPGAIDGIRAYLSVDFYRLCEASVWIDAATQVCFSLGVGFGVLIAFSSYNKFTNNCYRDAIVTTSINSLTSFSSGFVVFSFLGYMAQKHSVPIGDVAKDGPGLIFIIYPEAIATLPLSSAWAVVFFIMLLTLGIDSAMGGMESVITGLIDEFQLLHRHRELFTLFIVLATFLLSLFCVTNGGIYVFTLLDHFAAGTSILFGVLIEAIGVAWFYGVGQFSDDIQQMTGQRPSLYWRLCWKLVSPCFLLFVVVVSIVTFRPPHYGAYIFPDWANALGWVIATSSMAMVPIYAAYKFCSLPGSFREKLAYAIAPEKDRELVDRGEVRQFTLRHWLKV
Chain of Vasopressin V1a receptor (P37288 whole entry): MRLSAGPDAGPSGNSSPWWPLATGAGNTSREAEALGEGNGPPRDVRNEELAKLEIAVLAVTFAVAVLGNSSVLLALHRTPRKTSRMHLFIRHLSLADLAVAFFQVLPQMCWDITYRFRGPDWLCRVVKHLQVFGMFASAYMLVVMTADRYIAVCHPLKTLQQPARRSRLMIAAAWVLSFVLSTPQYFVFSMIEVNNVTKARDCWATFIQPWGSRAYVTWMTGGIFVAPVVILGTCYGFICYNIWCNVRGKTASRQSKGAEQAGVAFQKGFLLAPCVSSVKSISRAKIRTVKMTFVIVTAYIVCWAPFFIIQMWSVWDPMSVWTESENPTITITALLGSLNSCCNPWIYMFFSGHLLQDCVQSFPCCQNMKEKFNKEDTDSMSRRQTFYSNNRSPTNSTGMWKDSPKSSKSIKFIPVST
Chain of 5-hydroxytryptamine receptor 2A (P28223 whole entry): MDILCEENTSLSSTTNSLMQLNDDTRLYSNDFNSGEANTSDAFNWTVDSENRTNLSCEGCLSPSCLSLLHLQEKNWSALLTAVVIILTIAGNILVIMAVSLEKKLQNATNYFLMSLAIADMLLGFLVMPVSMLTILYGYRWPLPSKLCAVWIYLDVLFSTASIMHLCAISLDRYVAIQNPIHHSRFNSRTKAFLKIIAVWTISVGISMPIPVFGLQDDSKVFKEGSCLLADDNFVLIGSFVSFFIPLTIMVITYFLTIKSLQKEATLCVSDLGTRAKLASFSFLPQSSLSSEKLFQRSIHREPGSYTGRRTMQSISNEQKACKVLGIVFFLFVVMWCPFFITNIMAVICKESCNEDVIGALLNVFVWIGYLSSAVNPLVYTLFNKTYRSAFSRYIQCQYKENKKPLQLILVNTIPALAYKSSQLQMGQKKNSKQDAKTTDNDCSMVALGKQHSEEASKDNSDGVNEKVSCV
Chain of Histamine H3 receptor (Q9Y5N1 whole entry): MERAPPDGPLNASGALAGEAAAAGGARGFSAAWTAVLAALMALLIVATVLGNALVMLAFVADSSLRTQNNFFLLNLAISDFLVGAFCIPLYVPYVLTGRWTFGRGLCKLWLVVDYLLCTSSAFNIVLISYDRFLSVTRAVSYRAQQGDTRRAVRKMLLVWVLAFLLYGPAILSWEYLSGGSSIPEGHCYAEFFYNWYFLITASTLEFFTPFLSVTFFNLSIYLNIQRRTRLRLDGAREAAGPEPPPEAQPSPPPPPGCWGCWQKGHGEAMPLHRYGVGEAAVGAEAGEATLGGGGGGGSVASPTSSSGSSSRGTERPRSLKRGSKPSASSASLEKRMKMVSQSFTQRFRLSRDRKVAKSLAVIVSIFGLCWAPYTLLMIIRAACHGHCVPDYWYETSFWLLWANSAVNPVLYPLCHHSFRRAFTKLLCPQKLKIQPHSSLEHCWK

Structure (SMILES) | AC50 [1] [µM] | AC50 [2] [µM] | AC50 [3] [µM] | AC50 [4] [µM] | AC50 [5] [µM] | AC50 [6] [µM] | AC50 [7] [µM] | AC50 [8] [µM] | AC50 [9] [µM] | AC50 [10] [µM] | AC50 [11] [µM]
CN(CCCN1c2ccccc2CCc2ccccc21)CC(=O)c1ccc(Cl)cc1 [LOFEPRAMINE] | > 30 | 6.6 | > 30 | 4.4 | 21 | > 30 | 28 | > 30 | 30 | > 30 | > 30
CN(C)CCCN1c2ccccc2Sc2ccccc21 [PROMAZINE] | > 10 | – | > 30 | 0.141 | > 10 | > 10 | > 10 | > 30 | > 10 | > 10 | > 10
NS(=O)(=O)c1cc(Cl)c(Cl)c(S(N)(=O)=O)c1 [DICHLORPHENAMIDE] | > 10 | > 10 | > 10 | > 30 | > 10 | > 10 | > 30 | > 30 | > 30 | > 10 | > 10
CN1C(=O)N(C)C2C1N(C)C(=O)N2C (stereo not drawn) [MEBICAR] | – | > 30 | – | > 30 | – | – | > 30 | > 30 | > 30 | > 30 | –
CN(C/C=C/c1ccccc1)Cc1cccc2ccccc12 [NAFTIFINE] | > 10 | – | > 30 | > 30 | 17.3 | – | > 30 | > 30 | > 30 | > 10 | > 30
NS(=O)(=O)c1cc2c(cc1Cl)NC(CC1CCCC1)NS2(=O)=O (stereo not drawn) [CYCLOPENTHIAZIDE] | – | > 30 | – | > 30 | – | – | > 30 | > 30 | > 30 | > 30 | –
N/N=c1/cc2c(n[nH]1)CCN(C(=O)c1ccccc1)C2 [ENDRALAZINE] | – | > 30 | – | > 30 | – | – | > 30 | > 30 | > 30 | > 30 | –
CC(=O)N(CC(O)CO)c1c(I)c(C(=O)NCC(O)CO)c(I)c(C(=O)NCC(O)CO)c1I (stereo not drawn) [IOHEXOL] | > 10 | > 30 | > 30 | > 30 | > 30 | > 30 | > 30 | – | > 30 | > 10 | > 30
N[C@@H](CSCC(=O)O)C(=O)O [CARBOCYSTEINE] | > 30 | > 30 | > 30 | > 30 | > 30 | > 30 | > 10 | – | > 30 | > 30 | > 30
O=P(O)(O)C(O)(Cc1cccnc1)P(=O)(O)O [RISEDRONIC ACID] | > 30 | – | > 30 | > 30 | > 30 | > 30 | > 30 | – | > 30 | > 30 | > 30
C=C1C[C@@H]2[C@H](CC[C@]3(C)C(=O)CC[C@@H]23)[C@@]2(C)C=CC(=O)C=C12 [EXEMESTANE] | > 10 | > 30 | > 30 | > 30 | > 30 | > 30 | > 30 | > 30 | > 30 | > 10 | > 10
Nc1ccc(/N=N/c2ccccc2)c(N)n1 [PHENAZOPYRIDINE] | – | > 30 | – | > 30 | – | – | 14 | > 30 | 2.9 | > 30 | –
COCC1=C(C(=O)OC(C)OC(=O)OC(C)C)N2C(=O)[C@@H](NC(=O)/C(=N\OC)c3csc(N)n3)[C@H]2SC1 (stereo partly drawn) [CEFPODOXIME PROXETIL] | – | > 30 | – | > 30 | – | – | 29 | > 30 | > 30 | > 30 | –
CO/N=C(\C(=O)N[C@@H]1C(=O)N2C(C(=O)OCOC(=O)C(C)(C)C)=C(C)CS[C@H]12)c1csc(N)n1 | – | > 30 | – | > 30 | – | – | > 30 | > 30 | > 30 | > 30 | –
CC(=O)O[C@]1(C(C)=O)CC[C@H]2[C@@H]3C[C@H](C)C4=CC(=O)CC[C@]4(C)[C@H]3CC[C@@]21C [MEDROXYPROGESTERONE ACETATE] | > 30 | – | > 30 | – | > 30 | > 30 | – | – | – | – | > 30
NS(=O)(=O)c1cc(-c2nnn[nH]2)c(NCc2cccs2)cc1Cl [AZOSEMIDE] | > 30 | > 30 | > 30 | > 30 | > 30 | > 30 | 7.8 | – | > 30 | > 30 | > 30
O=C(Cn1ccnc1[N+](=O)[O-])NCc1ccccc1 [BENZNIDAZOLE] | > 30 | > 30 | > 30 | > 30 | > 30 | > 30 | > 30 | – | > 30 | > 30 | > 30
O=C1CCC(N2C(=O)c3ccccc3C2=O)C(=O)N1 (stereo not drawn) [THALIDOMIDE] | > 10 | – | > 30 | > 30 | > 10 | > 10 | > 30 | > 30 | > 30 | > 10 | > 10
C[N+](C)(C)CC(=O)O [BETAINE] | > 30 | > 30 | > 30 | > 30 | > 30 | > 30 | > 30 | – | > 30 | > 30 | > 30
CCCC(=O)N1CCCN(c2nc(N)c3cc(OC)c(OC)cc3n2)CC1 [BUNAZOSIN] | > 30 | > 30 | > 30 | – | > 30 | > 30 | > 30 | > 30 | > 30 | 11 | > 30
CC(=O)N[C@H]1[C@H]([C@H](O)[C@H](O)CO)OC(C(=O)O)=C[C@@H]1N=C(N)N [ZANAMIVIR] | > 30 | > 30 | > 30 | – | > 30 | > 30 | > 30 | – | > 30 | > 10 | > 30
CN(C)[C@@H]1C(O)=C(C(N)=O)C(=O)[C@@]2(O)C(O)=C3C(=O)c4c(O)ccc(Cl)c4[C@@H](O)[C@H]3C[C@@H]12 [DEMECLOCYCLINE] | – | > 10 | > 10 | – | > 10 | > 10 | > 30 | – | > 30 | > 10 | > 10
C[N+](C)(C)CCOC(N)=O [CARBAMOYLCHOLINE] | – | – | > 10 | > 30 | > 10 | > 10 | > 30 | > 30 | > 30 | > 30 | > 10
CC(C)NCC1CCc2cc(CO)c([N+](=O)[O-])cc2N1 (stereo not drawn) [OXAMNIQUINE] | > 10 | > 30 | > 10 | > 30 | > 30 | > 10 | > 30 | – | > 30 | > 10 | > 10
